Experimental data taken from patent US20250269039A1, “THERAPEUTIC-OLIGONUCLEOTIDES ACTIVATED BY NUCLEASES” (priority 2020, published 2025).

How the values were obtained:
[1] = test system: P. aeruginosa ATCC 10145; experiment: Broth microdilution MIC and growth inhibition (control bacteria); format: cell-based
Text: (§1) Bacteria strains. S. aureus NCTC 12493 (MRSA), S. aureus ATCC 29213 (MSSA), S. aureus ATCC 43300 (MRSA), S. aureus ATCC 1707 (MRSA), S. aureus ATCC 1717 (MRSA), S. aureus ATCC 1747 (MRSA), S. aureus ATCC 1761 (MRSA), S. aureus ATCC 1766 (MRSA), S. aureus ATCC 1768 (MRSA), S. epidermidis ATCC 35984, E. coli ATCC 25922, K. pneumoniae ATCC 13883, P. mirabilis ATCC 25933, S. enterica ATCC 14028 and P. aeruginosa ATCC 10145 strains were used in this study. Bacteria were initially inoculated onto tryptone soy agar with 5% defibrinated sheep blood (Thermo Fisher Scientific, Inc., Waltham, MA, USA) and incubated at 37° C. for 24 hours. Then, single colonies of each strain were transferred to tryptone soy broth (Thermo Fisher Scientific) for the nuclease activity assay or antimicrobial susceptibility testing, respectively.
(§2) Antimicrobial susceptibility testing. Minimal inhibitory concentrations (MIC) of all nucleoside analogues and TOUCANs against each bacteria strain were determined using broth microdilution method. A single colony obtained from overnight culture on tryptone soy agar with 5% defibrinated sheep blood was inoculated in cation-adjusted Mueller Hinton Broth and adjusted to 10^6 CFU/mL. TOUCANs were prepared in PBS+/+ (treatment) and serial dilutions were made in 96-well polystyrene round bottom microwell plates with 50 μL final volume for each concentration. PBS+/+ was used as untreated control. Next, 50 μL bacteria solutions were added to each well to a final bacteria concentration of 5×10^5 CFU/mL. Plates were incubated at 37° C. in Cytation 1 Cell Imaging Multimode Reader. Growth curves were obtained by measuring optical densities at 600 nm every 10 minutes for 18 hours using Cytation 1 Cell Imaging Multimode Reader. In addition, visual inspection of the plates was carried out after 18 hours and photographs were taken. MICs were defined as the lowest drug concentration in the microwell at which bacterial growth was not visible at the end of the incubation period. Besides MIC determination, specificity of TOUCAN 7mGe was also shown with subcultures on chromogenic media. For this purpose, 5 μL of different concentrations of each strain were inoculated onto CHROM agar Orientation Media (Becton Dickinson) and the bacterial growth of each bacteria strain tested was observed by naked eye after incubation at 37° C. for 24 hours. Finally, photographs of the chromogenic media were taken.

[2] = test system: S. enterica ATCC 14028; experiment: as above; format: cell-based
Text: as §1, §2

[3] = test system: K. pneumoniae ATCC 13883; experiment: as above; format: cell-based
Text: as §1, §2

[4] = test system: S. aureus NCTC 12493 (MRSA); experiment: Broth microdilution MIC and growth inhibition; format: cell-based, Staphylococcus aureus; conditions: S. aureus NCTC 12493 (MRSA)
Text: as §1, §2

[5] = test system: S. aureus ATCC 29213 (MSSA); experiment: Broth microdilution MIC and growth inhibition; format: cell-based, Staphylococcus aureus; conditions: S. aureus ATCC 29213 (MSSA)
Text: as §1, §2

[6] = test system: S. aureus ATCC 43300 (MRSA); experiment: Broth microdilution MIC and growth inhibition; format: cell-based, Staphylococcus aureus
Text: as §1, §2

[7] = test system: S. aureus ATCC 1761 (MRSA); experiment: Broth microdilution MIC and growth inhibition; format: cell-based, Staphylococcus aureus
Text: as §1, §2

[8] = test system: S. aureus ATCC 1766 (MRSA); experiment: Broth microdilution MIC and growth inhibition; format: cell-based, Staphylococcus aureus; conditions: for growth inhibition, dose response: ATCC-1766 (MRSA), FIGS. 5e-f
Text: as §1, §2

[9] = test system: S. aureus ATCC 1768 (MRSA); experiment: Broth microdilution MIC and growth inhibition; format: cell-based, Staphylococcus aureus
Text: as §1, §2

[10] = test system: S. aureus ATCC 1707 (MRSA); experiment: Broth microdilution MIC and growth inhibition; format: cell-based, Staphylococcus aureus
Text: as §1, §2

[11] = test system: S. aureus ATCC 1747 (MRSA); experiment: Broth microdilution MIC and growth inhibition; format: cell-based, Staphylococcus aureus
Text: as §1, §2

[12] = test system: S. aureus ATCC 1717 (MRSA); experiment: Broth microdilution MIC and growth inhibition; format: cell-based, Staphylococcus aureus
Text: as §1, §2

[13] = test system: E. coli ATCC 25922; experiment: Broth microdilution MIC and growth inhibition (control bacteria); format: cell-based, Escherichia coli
Text: as §1, §2

[14] = test system: P. mirabilis ATCC 25933; experiment: as above; format: cell-based, Proteus mirabilis
Text: as §1, §2

[15] = Complete blood counts of infected/treated mice
[16] = test system: S. epidermidis ATCC 35984; experiment: Broth microdilution MIC and growth inhibition (control bacteria); format: cell-based, Staphylococcus epidermidis
Text: as §1, §2

[17] = infected/treated mice, blood after 24 hours, AVG, n = 4

Question: Which results are given for mU-mU-mU-mU-T-T-Fx [TOUCAN 7mFx]?
Answer: MIC ([1]; 18 h, TOUCAN as NA equivalent): >40 µg/mL; TOUCAN % Growth inhibition ([1]; mean ± SD, n = 3): 7.2 ± 1.4%; MIC ([2]; 18 h, TOUCAN as NA equivalent): >40 µg/mL; TOUCAN % Growth inhibition ([2]; mean ± SD, n = 3): 10.8 ± 2.1%; MIC ([3]; 18 h, TOUCAN as NA equivalent): >40 µg/mL; TOUCAN % Growth inhibition ([3]; mean ± SD, n = 3): 0 ± 0.00%; TOUCAN MIC/NA MIC TOUCAN Efficacy Ratio (TER) [4]: 125; MIC ([4]; 18 h, TOUCAN as NA equivalent): 40 µg/mL; TOUCAN % Growth inhibition ([4]; mean ± SD, n = 3): 91.5 ± 0.00%; TOUCAN MIC/NA MIC TOUCAN Efficacy Ratio (TER) [5]: 250; MIC ([5]; 18 h, TOUCAN as NA equivalent): 20 µg/mL; TOUCAN % Growth inhibition ([5]; mean ± SD, n = 3): 92.3 ± 0.09%; TOUCAN MIC/NA MIC TOUCAN Efficacy Ratio (TER) [6]: 1000; MIC ([6]; 18 h, TOUCAN as NA equivalent): 40 µg/mL; TOUCAN % Growth inhibition ([6]; mean ± SD, n = 3): 92.8 ± 0.7%; TOUCAN MIC/NA MIC TOUCAN Efficacy Ratio (TER) [7]: 500; MIC ([7]; 18 h, TOUCAN as NA equivalent): 2.5 µg/mL; TOUCAN % Growth inhibition ([7]; mean ± SD, n = 3): 93.9 ± 0.05%; growth inhibition, dose response ([8]; 0.31 μg/mL): partial inhibition; growth inhibition, dose response ([8]; concentrations from 0.62 to 10 μg/mL): efficient inhibition; TOUCAN MIC/NA MIC TOUCAN Efficacy Ratio (TER) ([8]; S. aureus ATCC 1766 (MRSA)): 15.5; MIC ([8]; S. aureus ATCC 1766 (MRSA), 18 h, TOUCAN as NA equivalent): 0.62 µg/mL; TOUCAN % Growth inhibition ([8]; S. aureus ATCC 1766 (MRSA), mean ± SD, n = 3): 93.6 ± 0.1%; TOUCAN MIC/NA MIC TOUCAN Efficacy Ratio (TER) [9]: 62.5; MIC ([9]; 18 h, TOUCAN as NA equivalent): 2.5 µg/mL; TOUCAN % Growth inhibition ([9]; mean ± SD, n = 3): 93.2 ± 0.3%; TOUCAN MIC/NA MIC TOUCAN Efficacy Ratio (TER) [10]: 125; MIC ([10]; 18 h, TOUCAN as NA equivalent): 5 µg/mL; TOUCAN % Growth inhibition ([10]; mean ± SD, n = 3): 94.6 ± 0.08%; TOUCAN MIC/NA MIC TOUCAN Efficacy Ratio (TER) [11]: 500; MIC ([11]; 18 h, TOUCAN as NA equivalent): 2.5 µg/mL; TOUCAN % Growth inhibition ([11]; mean ± SD, n = 3): 92.8 ± 0.7%; TOUCAN MIC/NA MIC TOUCAN Efficacy Ratio (TER) [12]: 125; MIC ([12]; 18 h, TOUCAN as NA equivalent): 10 µg/mL; TOUCAN % Growth inhibition ([12]; mean ± SD, n = 3): 94.5 ± 0.04%; MIC ([13]; 18 h, TOUCAN as NA equivalent): >40 µg/mL; TOUCAN % Growth inhibition ([13]; mean ± SD, n = 3): 0 ± 0.00%; MIC ([14]; 18 h, TOUCAN as NA equivalent): >40 µg/mL; TOUCAN % Growth inhibition ([14]; mean ± SD, n = 3): 45.5 ± 0.4%; percentage of neutrophils in blood ([15]; infected treated mice, after 24 hours, FIG. 7i): 13.8%; BAS [15, 17]: 0.0 10^9/L; BAS % [15, 17]: 0.3%; EO [15, 17]: 0.0 10^9/L; EO % [15, 17]: 1.3%; HCT [15, 17]: 44.5%; HGB [15, 17]: 14.0 g/dL; LYM [15, 17]: 1.6 10^9/L; LYM % [15, 17]: 68.6%; MCH [15, 17]: 15.0 pg; MCHC [15, 17]: 31.4 g/dL; MCV [15, 17]: 47.9 fL; MON [15, 17]: 0.4 10^9/L; MON % [15, 17]: 15.7%; NE [15, 17]: 0.3 10^9/L; NE % [15, 17]: 14.1%; PLT [15, 17]: 630.0 K/μL; RBC [15, 17]: 9.3e+12 L⁻¹; RET [15, 17]: 257.7 K/μL; RET % [15, 17]: 2.8%; WBC [15, 17]: 2.4 10^9/L; change of red blood cells (RBCs), hematocrit and hemoglobin (acute blood toxicity) ([15]; treated mice versus uninfected and placebo groups, FIG. 11): no difference; MIC ([16]; S. epidermidis ATCC 35984, 18 h, TOUCAN as NA equivalent): >40 µg/mL; TOUCAN % Growth inhibition ([16]; S. epidermidis ATCC 35984, mean ± SD, n = 3): 7.4 ± 4.0%; growth inhibition, dose response ([16]; S. epidermidis, all concentrations tested, FIG. 5): no growth inhibition
